Measurements from US20250066389A1, “HETEROCYCLIC AMIDES AND METHODS OF USING THE SAME” (Rgenta Therapeutics, Inc., priority 2021, published 2025).
Where a name gives a salt, the structure may show the parent alone.

What follows are compounds tested on PMS1 (assay: Mini-Gene Reporter Assay—PMS1 (firefly luciferase mini-gene reporter transiently transfected into HEK293 cells)). Settings: Homo sapiens; at 5 uM; mini-gene firefly luciferase reporter in HEK293 cells; read-out: PMS1 % Effect at 5 uM.
Assay type: cell-based
Excerpt: Example 76. Mini-Gene Reporter Assay—PMS1
Mini-gene reporter constructs for each target site can be constructed by first PCR amplifying the region-of-interest including the sequence of the alternatively skipped, sequences of the immediate upstream and downstream introns, and sequences of the immediate upstream and downstream exons. Then the 3′ end of the amplified sequence can be ligated to a firefly luciferase reporter gene and cloned into the pcDNA3.1 vector backbone. The final reporter construct can be transiently transfected into HEK293 cells using Lipofectamine 3000 transfection reagents. Compounds that can induce the inclusion of the skipped exon in the reporter construct would increase the reporter firefly luciferase activity.
Test compounds may be diluted in duplicates and dispensed into an assay plate. Transient mini-gene reporter cell line stock is resuspended and dispensed into the assay plate. Assay plates are then centrifuged and incubated. A luciferase reagent (e.g. ONE-Glo firefly luciferase reagent from Promega®) may be added to the assay plate and the luminescence (RLU) signals recorded. EC50 values may be determined by curve fitting in Levenberg-Marquardt algorithm.
In Table D below, A indicates a IC50 (μM)<1 μM, B indicates a IC50 (μM) 1 μM to <10 μM, and C indicates a IC50 (μM) 10 μM to <50 μM. In Table D below, A indicates a >75% Effect at 5 μM μM. B indicates a 50 to <75% Effect at 5 μM μM, and C indicates a <50% Effect at 5 μM.

Q: With `COc1cc2nc(C)cn2cc1C(=O)Nc1ccc(N2CCC3NCCCC3C2)cc1F` (stereo not shown) [Compound 131, N-(2-fluoro-4-(octahydro-1,6-naphthyridin-6(2H)-yl)phenyl)-7-methoxy-2-methylimidazo[1,2-a]pyridine-6-carboxamide] as the compound, how does the activation at 5 µM read?
A: 50 to 75%

Q: With `COc1cc2nc(C)cn2cc1C(=O)Nc1ccc(N2CC(CO)C3(CNC3)C2)cc1F` (stereo not shown) [Compound 134, N-(2-fluoro-4-(8-(hydroxymethyl)-2,6-diazaspiro[3.4]octan-6-yl)phenyl)-7-methoxy-2-methylimidazo[1,2-a]pyridine-6-carboxamide] as the compound, how does the activation at 5 µM read?
A: < 50%

Q: With `COc1cc2nc(C)cn2cc1C(=O)Nc1ccc(N2CCC3(CCNC3)CC2)cc1F` [Compound 135, N-(2-fluoro-4-(2,8-diazaspiro[4.5]decan-8-yl)phenyl)-7-methoxy-2-methylimidazo[1,2-a]pyridine-6-carboxamide] as the compound, how does the activation at 5 µM read?
A: < 50%

Q: Which activation at 5 µM does the source give for `COc1cc2nc(C)cn2cc1C(=O)Nc1ccc(N2CCC(NCC3CC3)CC2)cc1F` [Compound 136, N-(4-(4-((cyclopropylmethyl)amino)piperidin-1-yl)-2-fluorophenyl)-7-methoxy-2-methylimidazo[1,2-a]pyridine-6-carboxamide] here?
A: 50 to 75%

Q: Which activation at 5 µM does the source give for `COCCNC1CCN(c2ccc(NC(=O)c3cn4cc(C)nc4cc3OC)c(F)c2)CC1` [Compound 137, N-(2-fluoro-4-(4-((2-methoxyethyl)amino)piperidin-1-yl)phenyl)-7-methoxy-2-methylimidazo[1,2-a]pyridine-6-carboxamide] here?
A: 50 to 75%

Q: For `COc1cc2nc(C)cn2cc1C(=O)Nc1ccc(N2CC3CCCC(C2)NC3)cc1F` (stereo not shown) [Compound 138, N-(4-(3,9-diazabicyclo[3.3.2]decan-3-yl)-2-fluorophenyl)-7-methoxy-2-methylimidazo[1,2-a]pyridine-6-carboxamide], which activation at 5 µM is on record?
A: > 75%

Q: With `COc1cc2nc(C)cn2cc1C(=O)Nc1ccc(N2CCNCC3(CC3)C2)cc1F` [Compound 139, N-(2-fluoro-4-(5,8-diazaspiro[2.6]nonan-5-yl)phenyl)-7-methoxy-2-methylimidazo[1,2-a]pyridine-6-carboxamide] as the compound, how does the activation at 5 µM read?
A: > 75%

Q: With `COc1cc2nc(C)cn2cc1C(=O)Nc1ccc(N2C3CCCC2CNC3)cc1F` [Compound 140, N-(4-(3,9-diazabicyclo[3.3.1]nonan-9-yl)-2-fluorophenyl)-7-methoxy-2-methylimidazo[1,2-a]pyridine-6-carboxamide] as the compound, how does the activation at 5 µM read?
A: > 75%

Q: For `COc1cc2nc(C)cn2cc1C(=O)Nc1ccc(N2CCCNC(CO)C2)cc1F` (stereo not shown) [Compound 141, N-(2-fluoro-4-(3-(hydroxymethyl)-1,4-diazepan-1-yl)phenyl)-7-methoxy-2-methylimidazo[1,2-a]pyridine-6-carboxamide], which activation at 5 µM is on record?
A: 50 to 75%

Q: Which activation at 5 µM does the source give for `COc1cc2nc(C)cn2cc1C(=O)Nc1ccc(N2CCN[C@@H](C(C)C)C2)cc1F` [Compound 142, (S)-N-(2-fluoro-4-(3-isopropylpiperazin-1-yl)phenyl)-7-methoxy-2-methylimidazo[1,2-a]pyridine-6-carboxamide] here?
A: > 75%

Q: Which activation at 5 µM does the source give for `COc1cc2nc(C)cn2cc1C(=O)Nc1ccc(N2CCC3(CCN3)CC2)cc1F` [Compound 143, N-(2-fluoro-4-(1,7-diazaspiro[3.5]nonan-7-yl)phenyl)-7-methoxy-2-methylimidazo[1,2-a]pyridine-6-carboxamide] here?
A: > 75%

Q: With `COCC1CNCCN1c1ccc(NC(=O)c2cn3cc(C)nc3cc2OC)c(F)c1` (stereo not shown) [Compound 144, N-(2-fluoro-4-(2-(methoxymethyl)piperazin-1-yl)phenyl)-7-methoxy-2-methylimidazo[1,2-a]pyridine-6-carboxamide] as the compound, how does the activation at 5 µM read?
A: 50 to 75%

Q: How did the activation at 5 µM turn out when `COc1cc2nc(C)cn2cc1C(=O)Nc1ccc(N2CCC3(CCNC3)C2)cc1F` (stereo not shown) [Compound 145, N-(2-fluoro-4-(2,7-diazaspiro[4.4]nonan-2-yl)phenyl)-7-methoxy-2-methylimidazo[1,2-a]pyridine-6-carboxamide] was run?
A: < 50%

Q: How did the activation at 5 µM turn out when `COc1cc2nc(C)cn2cc1C(=O)Nc1ccc(N2CCC3(CCCN3)C2)cc1F` (stereo not shown) [Compound 146, N-(2-fluoro-4-(1,7-diazaspiro[4.4]nonan-7-yl)phenyl)-7-methoxy-2-methylimidazo[1,2-a]pyridine-6-carboxamide] was run?
A: < 50%

Q: With `COc1cc2nc(C)cn2cc1C(=O)Nc1ccc(N2C3CCNCC2CC3)cc1F` (stereo not shown) [Compound 148, N-(4-(3,9-diazabicyclo[4.2.1]nonan-9-yl)-2-fluorophenyl)-7-methoxy-2-methylimidazo[1,2-a]pyridine-6-carboxamide] as the compound, how does the activation at 5 µM read?
A: < 50%

Q: For `CCNC1CCN(c2ccc(NC(=O)c3cn4cc(C)nc4cc3OC)c(F)c2)CC1` [Compound 149, N-(4-(4-(ethylamino)piperidin-1-yl)-2-fluorophenyl)-7-methoxy-2-methylimidazo[1,2-a]pyridine-6-carboxamide], which activation at 5 µM is on record?
A: > 75%

Q: Which activation at 5 µM does the source give for `COc1cc2nc(C)cn2cc1C(=O)Nc1ccc(N2CCC3(CC2)CNC3)cc1F` [Compound 150, N-(2-fluoro-4-(2,7-diazaspiro[3.5]nonan-7-yl)phenyl)-7-methoxy-2-methylimidazo[1,2-a]pyridine-6-carboxamide] here?
A: < 50%

Q: How did the activation at 5 µM turn out when `CCNC1CCCN(c2ccc(NC(=O)c3cn4cc(C)nc4cc3OC)c(F)c2)C1` (stereo not shown) [Compound 151, N-(4-(3-(ethylamino)piperidin-1-yl)-2-fluorophenyl)-7-methoxy-2-methylimidazo[1,2-a]pyridine-6-carboxamide] was run?
A: < 50%

Q: Which activation at 5 µM does the source give for `COc1cc2nc(C)cn2cc1C(=O)Nc1ccc(N2CCC3(CNC3)C2)cc1F` [Compound 152, N-(2-fluoro-4-(2,6-diazaspiro[3.4]octan-6-yl)phenyl)-7-methoxy-2-methylimidazo[1,2-a]pyridine-6-carboxamide] here?
A: < 50%

Q: With `COc1cc2nc(C)cn2cc1C(=O)Nc1ccc(N2CCNCC(O)C2)cc1F` (stereo not shown) [Compound 153, N-(2-fluoro-4-(6-hydroxy-1,4-diazepan-1-yl)phenyl)-7-methoxy-2-methylimidazo[1,2-a]pyridine-6-carboxamide] as the compound, how does the activation at 5 µM read?
A: < 50%

Q: How did the activation at 5 µM turn out when `COc1cc2nc(C)cn2cc1C(=O)Nc1ccc(N2CCNC(CF)C2)cc1F` (stereo not shown) [Compound 159, N-(2-fluoro-4-(3-(fluoromethyl)piperazin-1-yl)phenyl)-7-methoxy-2-methylimidazo[1,2-a]pyridine-6-carboxamide] was run?
A: 50 to 75%

Same assay, conditions: Homo sapiens; mini-gene firefly luciferase reporter in HEK293 cells

Q: Which IC50 does the source give for `Cc1cn2cc(C(=O)Nc3ccc(N4CCNCC4)cn3)c(OC(C)C)cc2n1` [Compound 129, 7-isopropoxy-2-methyl-N-(5-(piperazin-1-yl)pyridin-2-yl)imidazo[1,2-a]pyridine-6-carboxamide hydrochloride] here?
A: 1000 to 10000 nM

Q: `CCOc1cc2nc(C)cn2cc1C(=O)Nc1ccc(N2CCNCC2)cn1` [Compound 130, 7-ethoxy-2-methyl-N-(5-(piperazin-1-yl)pyridin-2-yl) imidazo[1,2-a]pyridine-6-carboxamide hydrochloride] was tested. Which IC50 did it give?
A: < 1000 nM

Q: How did the IC50 turn out when `COc1cc2nc(C)cn2cc1C(=O)Nc1ccc(N2CCC3(CCCN3)CC2)cc1F` [Compound 132, N-(2-fluoro-4-(1,8-diazaspiro[4.5]decan-8-yl)phenyl)-7-methoxy-2-methylimidazo[1,2-a]pyridine-6-carboxamide] was run?
A: < 1000 nM

Q: `COc1cc2nc(C)cn2cc1C(=O)Nc1ccc(N2CCC3(CC2)COCCN3)cc1F` [Compound 133, N-(2-fluoro-4-(4-oxa-1,9-diazaspiro[5.5]undecan-9-yl)phenyl)-7-methoxy-2-methylimidazo[1,2-a]pyridine-6-carboxamide] was tested. Which IC50 did it give?
A: < 1000 nM

Q: `COc1cc2nc(C)cn2cc1C(=O)Nc1ccc(N2CC3CCCC(C2)N3)cc1F` [Compound 147, N-(4-(3,9-diazabicyclo[3.3.1]nonan-3-yl)-2-fluorophenyl)-7-methoxy-2-methylimidazo[1,2-a]pyridine-6-carboxamide] was tested. Which IC50 did it give?
A: < 1000 nM

Q: With `COc1cc2nc(C)cn2cc1C(=O)Nc1ccc(N2[C@H](C)CNC[C@@H]2C)cc1F` [Compound 154, N-(4-((28,6R)-2,6-dimethylpiperazin-1-yl)-2-fluorophenyl)-7-methoxy-2-methylimidazo[1,2-a]pyridine-6-carboxamide] as the compound, how does the IC50 read?
A: < 1000 nM

Q: How did the IC50 turn out when `COc1cc2nc(C)cn2cc1C(=O)Nc1ccc(N2CC3CNC(C3)C2)cc1F` (stereo not shown) [Compound 155, N-(4-(3,6-diazabicyclo[3.2.1]octan-3-yl)-2-fluorophenyl)-7-methoxy-2-methylimidazo[1,2-a]pyridine-6-carboxamide] was run?
A: < 1000 nM

Q: For `COc1cc2nc(C)cn2cc1C(=O)Nc1ccc(N2CCNC(C)C2C)cc1F` (stereo not shown) [Compound 157, N-(4-(2,3-dimethylpiperazin-1-yl)-2-fluorophenyl)-7-methoxy-2-methylimidazo[1,2-a]pyridine-6-carboxamide], which IC50 is on record?
A: < 1000 nM

Q: For `COc1cc2nc(C)cn2cc1C(=O)Nc1ccc(N2CCNCCC2C)cc1F` (stereo not shown) [Compound 158, N-(2-fluoro-4-(7-methyl-1,4-diazepan-1-yl)phenyl)-7-methoxy-2-methylimidazo[1,2-a]pyridine-6-carboxamide], which IC50 is on record?
A: < 1000 nM

Q: `COc1cc2nc(C)cn2cc1C(=O)Nc1ccc(N2CCNC(C)CC2)cc1F` (stereo not shown) [Compound 160, N-(2-fluoro-4-(5-methyl-1,4-diazepan-1-yl)phenyl)-7-methoxy-2-methylimidazo[1,2-a]pyridine-6-carboxamide] was tested. Which IC50 did it give?
A: < 1000 nM
